In US20040121316A1 (priority 2002, published 2004):
Like-named read-outs stand apart in the source and are kept apart here.

Columns and labels:
[1] = system: mutant HIV-1 I84V/L90M; assay: Resistance Evaluation, I84V/L90M fold change; format: cell-based; set-up: scale not given here
[2] = system: wild-type HIV-1 strain IIIB; assay: microbe, parasite or virus in culture; format: cell-based; set-up: scale not given here
[3] = EC50 of mutant I84V/L90M relative to wild type, class symbols
[4] = Human immunodeficiency virus 1, IIIB

Structure (SMILES)	I84V/L90M fold change [1, 3]	I84V/L90M fold change ([1]; mutant I84V/L90M vs wild type)	further results
CCOP(=O)(CN1CC=C(CC(NC(=O)OC2COC3OCCC23)C(O)CN(CC(C)C)S(=O)(=O)c2ccc(OC)cc2)CC1)OCC (stereo not shown)	+ (>3 to ≦10)	–	–
CC(C)CN(CC(O)C(Cc1ccccc1)NC(=O)OC1COC2OCCC12)S(=O)(=O)c1ccc(O)cc1 (stereo not shown)	–	− (≦3)	–
COc1ccc(S(=O)(=O)N(CC(C)C)CC(O)C(Cc2ccc(OCc3ccccc3)cc2)NC(=O)OC2COC3OCCC23)cc1 (stereo not shown)	–	− (≦3)	–
CCOP(=O)(CON=Cc1ccc(CC(NC(=O)OC2COC3OCCC23)C(O)CN(CC(C)C)S(=O)(=O)c2ccc(OC)cc2)cc1)OCC (stereo not shown) [drawing 621 R1=Et R2=Et]	− (≦3)	–	EC50 [2]: + + +
CCOP(=O)(COc1ccc(CC(NC(=O)OC2COC3OCCC23)C(O)CN(CC(C)C)S(=O)(=O)c2cccc(N)c2)cc1)OCC (stereo not shown)	–	− (≦3)	–
COc1ccc(S(=O)(=O)N(CCN2CCOCC2)CC(O)C(Cc2ccc(OCP(=O)(O)O)cc2)NC(=O)OC2COC3OCCC23)cc1 (stereo not shown)	–	+ (>3 to ≦10)	EC50 [2, 4]: > 5000 nM
CCOP(=O)(Cc1ccc2c(c1)CCN(CC(NC(=O)OC1COC3OCCC13)C(O)CN(CC(C)C)S(=O)(=O)c1ccc(OC)cc1)C2)OCC (stereo not shown)	+ (>3 to ≦10)	–	–
COc1ccc(S(=O)(=O)N(CC(C)C)CC(O)C(Cc2ccc(OCP(=O)(O)OC(C)C(=O)O)cc2)NC(=O)OC2COC3OCCC23)cc1 (stereo not shown) [drawing 615 R1=OH R2=Lac-OH]	− (≦3)	–	EC50 [2, 4]: 500 to 5000 nM
CC(C)CN(CC(O)C(Cc1ccc(OCP(=O)(OCc2ccccc2)OCc2ccccc2)cc1)NC(=O)OC1COC2OCCC12)S(=O)(=O)c1ccc(C#N)cc1 (stereo not shown)	–	− (≦3)	–
COc1ccc(S(=O)(=O)N(CC(C)C)CC(O)C(CNc2ccc(CP(=O)(O)O)cc2)NC(=O)OC2COC3OCCC23)cc1 (stereo not shown)	+ (>3 to ≦10)	–	EC50 [2, 4]: 500 to 5000 nM
CC(C)CN(CC(O)C(Cc1ccccc1)NC(=O)OC1COC2OCCC12)S(=O)(=O)c1ccc(OCP(=O)(O)O)cc1 (stereo not shown)	–	− (≦3)	EC50 [2, 4]: 500 to 5000 nM
COc1ccc(S(=O)(=O)N(CC(C)C)C[C@@H](O)[C@H](Cc2ccc(OCP(=O)(O)O)cc2)NC(=O)OC2CCOC2)cc1 (stereo partly shown) [OMe, OH]	–	+ + +	EC50 ([2]; read-out: EC50): > 5000 nM
Cc1ccc(C(=O)NC(Cc2ccc(OCP(=O)(OCc3ccccc3)OCc3ccccc3)cc2)C(O)CN(CC(C)C)S(=O)(=O)c2ccc(N)cc2)cc1O (stereo not shown)	–	+ (>3 to ≦10)	–
CC(C)CN(CC(O)C(Cc1ccc(OCP(=O)(OCc2ccccc2)OCc2ccccc2)cc1)NC(=O)OC1COC2OCCC12)S(=O)(=O)c1ccc(C(F)(F)F)cc1 (stereo not shown)	–	− (≦3)	–
CCOP(=O)(COc1ccc(CC(NC(=O)OC2COC3OCCC23)C(O)CN(CC(C)C)S(=O)(=O)c2ccc(N)cc2)cc1)OCC (stereo not shown)	–	− (≦3)	–
COc1ccc(S(=O)(=O)N(CC(C)C)CC(O)C(Cc2ccccc2)NC(=O)OC2COC3OCCC23)cc1O (stereo not shown)	–	− (≦3)	–
CCCCOC(=O)C(CC)NP(=O)(COc1ccc(CC(NC(=O)OC2COC3OCCC23)C(O)CN(CC(C)C)S(=O)(=O)c2ccc(OC)cc2)cc1)NC(CC)C(=O)OCCCC (stereo not shown) [drawing 612 R1=Aba-Bu R2=Aba-Bu]	+ (>3 to ≦10)	–	EC50 [2, 4]: < 50 nM
CCOP(=O)(Cc1ccc(NCC(NC(=O)OC2COC3OCCC23)C(O)CN(CC(C)C)S(=O)(=O)c2ccc(OC)cc2)cc1)OCC (stereo not shown)	+ (>3 to ≦10)	–	–
COc1ccc(S(=O)(=O)N(CC(C)C)CC(O)C(Cc2ccc(NCP(=O)(OCc3ccccc3)OCc3ccccc3)cc2)NC(=O)OC2COC3OCCC23)cc1 (stereo not shown)	− (≦3)	–	–
CCOP(=O)(COc1ccc(S(=O)(=O)N(CC(C)C)CC(O)C(Cc2ccc(N(C)C)cc2)NC(=O)OC2COC3OCCC23)cc1)OCC (stereo not shown) [NMe2, OEt]	–	++ (>10 to ≦30)	EC50 ([2]; read-out: EC50): < 50 nM
CCOC(=O)C(NP(=O)(COc1ccc(CC(NC(=O)OC2COC3OCCC23)C(O)CN(CC(C)C)S(=O)(=O)c2ccc(OC)cc2)cc1)NC(C(=O)OCC)C(C)C)C(C)C (stereo not shown) [drawing 612 R1=Val-Et R2=Val-Et]	− (≦3)	–	EC50 [2, 4]: < 50 nM
CCOC(=O)C(C)NP(=O)(COc1ccc(CC(NC(=O)OC2COC3OCCC23)C(O)CN(CC(C)C)S(=O)(=O)c2ccc(OC)cc2)cc1)OCc1ccccc1 (stereo not shown) [Example 30e]	− (≦3)	–	EC50 [2, 4]: < 50 nM
Cc1ccc(C(=O)NC(Cc2ccc(OCP(=O)(O)O)cc2)C(O)CN(CC(C)C)S(=O)(=O)c2ccc(N)cc2)cc1O (stereo not shown)	–	+ (>3 to ≦10)	EC50 [2, 4]: > 5000 nM
CC(C)CN(CC(O)C(Cc1ccc(O)cc1)NC(=O)OC1COC2OCCC12)S(=O)(=O)c1cccc(N)c1 (stereo not shown) [OH, m-NH2]	–	− (≦3)	EC50 (nM) [2]: + +
CC(C)CN(CC(O)C(Cc1ccc(OCP(=O)(OCc2ccccc2)OCc2ccccc2)cc1)NC(=O)OC1COC2OCCC12)S(=O)(=O)c1ccc(F)cc1 (stereo not shown)	–	+ (>3 to ≦10)	–
COc1ccc(S(=O)(=O)N(CCN2CCOCC2)CC(O)C(Cc2ccc(OCP(=O)(OCc3ccccc3)OCc3ccccc3)cc2)NC(=O)OC2COC3OCCC23)cc1 (stereo not shown)	–	+ (>3 to ≦10)	–

Structure (SMILES)	I84V/L90M fold change [1, 3]	I84V/L90M fold change ([1]; mutant I84V/L90M vs wild type)	further results
COc1ccc(S(=O)(=O)N(CC(C)C)CC(O)C(Cc2ccc(OCP(=O)(OC(C)C(=O)OC(C)C)OC(C)C(=O)OC(C)C)cc2)NC(=O)OC2COC3OCCC23)cc1 (stereo not shown) [drawing 613 R1=Lac-iPr R2=Lac-iPr]	− (≦3)	–	EC50 [2, 4]: < 50 nM
CCOP(=O)(COc1cc(S(=O)(=O)N(CC(C)C)CC(O)C(Cc2ccccc2)NC(=O)OC2COC3OCCC23)ccc1OC)OCC (stereo not shown)	–	+ (>3 to ≦10)	–
CC(C)CN(CC(O)C(Cc1ccc(O)cc1)NC(=O)OC1COC2OCCC12)S(=O)(=O)c1ccc(N)cc1 (stereo not shown) [OH, p-NH2]	–	− (≦3)	EC50 (nM) [2]: + +
CCOP(=O)(CNc1ccc(CC(NC(=O)OC2COC3OCCC23)C(O)CN(CC(C)C)S(=O)(=O)c2ccc(OC)cc2)cc1)OCC (stereo not shown)	− (≦3)	–	–
CCOP(=O)(CCC1=CCN(CC(NC(=O)OC2COC3OCCC23)C(O)CN(CC(C)C)S(=O)(=O)c2ccc(OC)cc2)CC1)OCC (stereo not shown)	+ (>3 to ≦10)	–	–
CCOP(=O)(COc1ccc(S(=O)(=O)N(CC(C)C)CC(O)C(Cc2ccc(N)cc2)NC(=O)OC2COC3OCCC23)cc1)OCC (stereo not shown) [NH2, OEt]	–	++ (>10 to ≦30)	EC50 ([2]; read-out: EC50): 50 to 500 nM
CCOP(=O)(Cc1ccc(CN(C)CC(NC(=O)OC2COC3OCCC23)C(O)CN(CC(C)C)S(=O)(=O)c2ccc(OC)cc2)cc1)OCC (stereo not shown)	− (≦3)	–	–
CC(C)CN(CC(O)C(Cc1ccc(OCP(=O)(OCc2ccccc2)OCc2ccccc2)cc1)NC(=O)OC1COC2OCCC12)S(=O)(=O)c1ccc(N)cc1 (stereo not shown)	–	− (≦3)	–
CCOP(=O)(Cc1ccc(N(C)CC(NC(=O)OC2COC3OCCC23)C(O)CN(CC(C)C)S(=O)(=O)c2ccc(OC)cc2)cc1)OCC (stereo not shown)	+ (>3 to ≦10)	–	–
CC(C)CN(CC(O)C(Cc1ccc(OCP(=O)(O)O)cc1)NC(=O)OC1COC2OCCC12)S(=O)(=O)c1ccc(N)cc1 (stereo not shown)	–	− (≦3)	EC50 [2, 4]: > 5000 nM
CCNc1ccc(S(=O)(=O)N(CC(C)C)CC(O)C(Cc2ccc(OCP(=O)(OCC)OCC)cc2)NC(=O)OC2COC3OCCC23)cc1 (stereo not shown)	–	− (≦3)	–
CCOP(=O)(COc1ccc(CC(NC(=O)OC2COC3OCCC23)C(O)CN(CC(C)C)S(=O)(=O)c2ccc([N+](=O)[O-])cc2)cc1)OCC (stereo not shown)	–	− (≦3)	–
CCCCOC(=O)C(C)OP(=O)(COc1ccc(C[C@H](NC(=O)O[C@H]2CO[C@H]3OCC[C@H]32)[C@H](O)CN(CC(C)C)S(=O)(=O)c2cccc(N)c2)cc1)Oc1ccccc1 (stereo partly shown)	–	− (≦3)	EC50 (nM) [2]: + +
CCNP(=O)(COc1ccc(CC(NC(=O)OC2COC3OCCC23)C(O)CN(CC(C)C)S(=O)(=O)c2ccc(OC)cc2)cc1)NCC (stereo not shown) [drawing 612 R1=NHEt R2=NHEt]	− (≦3)	–	EC50 [2, 4]: 50 to 500 nM
COc1ccc(S(=O)(=O)N(CC(C)C)CC(O)C(CC2=CCN(CCP(=O)(OCc3ccccc3)OCc3ccccc3)CC2)NC(=O)OC2COC3OCCC23)cc1 (stereo not shown) [drawing 630]	+ (>3 to ≦10)	–	–
CC(C)CN(CC(O)C(Cc1ccc(OCP(=O)(OCc2ccccc2)OCc2ccccc2)cc1)NC(=O)OC1COC2OCCC12)S(=O)(=O)c1ccccc1 (stereo not shown)	–	+ (>3 to ≦10)	–
CCOC(=O)C(C)OP(=O)(COc1ccc(CC(NC(=O)OC2COC3OCCC23)C(O)CN(CC(C)C)S(=O)(=O)c2ccc(OC)cc2)cc1)OC(C)C(=O)OCC (stereo not shown) [drawing 613 R1=Lac-Et R2=Lac-Et]	− (≦3)	–	EC50 [2, 4]: 50 to 500 nM
CCOP(=O)(COc1cc(S(=O)(=O)N(CC(C)C)CC(O)C(Cc2ccccc2)NC(=O)OC2COC3OCCC23)ccc1O)OCC (stereo not shown)	–	− (≦3)	–
CC(C)CN(CC(O)C(Cc1ccccc1)NC(=O)OC1COC2OCCC12)S(=O)(=O)c1cccc(OCP(=O)(O)O)c1 (stereo not shown)	–	+ (>3 to ≦10)	–
CCCCOC(=O)C(CC(C)C)NP(=O)(COc1ccc(CC(NC(=O)OC2COC3OCCC23)C(O)CN(CC(C)C)S(=O)(=O)c2ccc(OC)cc2)cc1)NC(CC(C)C)C(=O)OCCCC (stereo not shown) [drawing 612 R1=Leu-Bu R2=Leu-Bu]	+ (>3 to ≦10)	–	EC50 [2, 4]: 50 to 500 nM
COc1ccc(S(=O)(=O)N(CC(C)C)C[C@@H](O)[C@H](Cc2ccc(OCP(=O)(OCc3ccccc3)OCc3ccccc3)cc2)NC(=O)OC2CCOC2)cc1 (stereo partly shown) [OMe, OBn]	–	+ +	EC50 (nM) [2]: + + +
COc1ccc(S(=O)(=O)N(CC(C)C)CC(O)C(Cc2ccc(OCP(=O)(O)OC(C)C(=O)O)cc2)NC(=O)OC2COC3OCCC23)cc1 [drawing 615 R1=OH R2=(R)Lac-OH]	− (≦3)	–	–
COc1ccc(S(=O)(=O)N(CC(C)C)CC(O)C(Cc2ccccc2)NC(=O)OC2COC3OCCC23)cc1OCP(=O)(O)O (stereo not shown)	–	− (≦3)	–
COc1ccc(S(=O)(=O)N(CC(C)C)CC(O)C(Cc2ccc(C)cc2)NC(=O)OC2COC3OCCC23)cc1 (stereo not shown)	–	+ (>3 to ≦10)	–
CC(C)CN(CC(O)C(Cc1ccccc1)NC(=O)OC1COC2OCCC12)S(=O)(=O)c1cccc(O)c1 (stereo not shown)	–	+ (>3 to ≦10)	–
CC(C)CN(CC(O)C(Cc1ccc(OCP(=O)(OCc2ccccc2)OCc2ccccc2)cc1)NC(=O)OC1COC2OCCC12)S(=O)(=O)c1cccc(N)c1 (stereo not shown)	–	− (≦3)	–
